Experimental data published in patent US20250345295A1, “LMK235 COMPOSITIONS AND METHODS” (UNM Rainforest Innovations, priority 2024, published 2025).

System: differentially expressed genes in TG
Experiment: RNAseq gene expression profiling of TG
Type: in vivo, mouse
Protocol: Gene expression profiling was performed on TG from mice with/without nerve injury during the acute phase (three weeks post injury) in TIC mice and after transition to chronic pain (10 weeks post injury) in FRICT-ION mice by Quick Biology Inc. (Monrovia, CA).
Total RNA from ipsilateral TG was isolated using the Rneasy Mini Kit (Qiagen, Valencia, CA). Gene expression profiling and analysis with RNA was done by Quick Biology Inc. (Monrovia, CA). RNAseq library preparation was performed by Quick Biology Inc. (Monrovia, CA), sequencing was performed using an Illumina HiSeq 4000 at 40 million reads per sample. The reads were first mapped to the latest UCSC transcript set using Bowtie2 version 2.1.0 and the gene expression level was estimated using RSEM v1.2.15. Differentially expressed genes were identified using the edgeR program. Genes showing altered expression with p<0.05 were considered differentially expressed.

[1] = LMK235-Treated FRICT-ION Vs Naive
[2] = LMK235-Treated FRICT-ION Vs Untreated FRICT-ION
[3] = TG RNAseq, FRICT-ION mice treated with LMK235 vs naive, week 10
[4] = TG RNAseq, LMK235-treated vs untreated FRICT-ION mice

Structure (SMILES): Cc1cc(C)cc(C(=O)NOCCCCCC(=O)NO)c1 [LMK235, N-[[6-(Hydroxyamino)-6-oxohexyl]oxy]-3,5-dimethyl-benzamide]
- Fold-change Arfgef2 [1]: 1.02
- Fold-change Astn2 [1]: 1.04
- Fold-change Bmp2 [1]: 1.11
- Fold-change Bmp3 [1]: −1.23
- Fold-change Bmp4 [1]: 1.18
- Fold-change Bmp5 [1]: 1.85
- Fold-change Cacna1a [1]: −1.06
- Fold-change Cacna1g [1]: −1.00
- Fold-change Cacna1i [1]: −1.14
- Fold-change Cacna1h [1]: −1.11
- Fold-change Cacna1d [1]: −1.03
- Fold-change Cacnb1 [1]: −1.02
- Fold-change Clcn1 [1]: −1.33
- Fold-change Clcn2 [1]: −1.11
- Fold-change Clic5 [1]: −1.08
- Fold-change Eef2 [1]: −1.05
- Fold-change Gabra5 [1]: 1.02
- Fold-change Gabra6 [1]: 1.18
- Fold-change Gabre [1]: −1.22
- Fold-change Gabrg1 [1]: 1.26
- Fold-change Jakmip1 [1]: 1.02
- Fold-change Kcna5 [1]: −1.06
- Fold-change Kcnc3 [1]: −1.05
- Fold-change Kcnd2 [1]: 1.09
- Fold-change Kcnh2 [1]: −1.06
- Fold-change Kcnh7 [1]: 1.03
- Fold-change Kcnj6 [1]: −1.10
- Fold-change Kcnk1 [1]: −1.02
- Fold-change Kcns2 [1]: 1.12
- Fold-change Kcnv1 [1]: 1.26
- Fold-change Kif1b [1]: 1.01
- Fold-change Maoa [1]: 1.08
- Fold-change Mapk3 [1]: −1.02
- Fold-change Mpz [1]: 1.07
- Fold-change Nacc2 [1]: −1.05
- Fold-change Nav3 [1]: 1.12
- Fold-change Ncald [1]: 1.05
- Fold-change Ndnf [1]: 1.31
- Fold-change Net1 [1]: −1.11
- Fold-change Neurod4 [1]: −1.13
- Fold-change Nf2 [1]: −1.02
- Fold-change Nfasc [1]: −1.09
- Fold-change Ngef [1]: −1.06
- Fold-change Nkain2 [1]: 1.05
- Fold-change Nova1 [1]: 1.04
- Fold-change Nras [1]: −1.00
- Fold-change Nrep [1]: 1.04
- Fold-change Nrg2 [1]: 1.04
- Fold-change Nrg3 [1]: 1.09
- Fold-change Nrp2 [1]: 1.07
- Fold-change Ntrk1 [1]: −1.09
- Fold-change Nts [1]: 1.18
- Fold-change Plcl1 [1]: 1.12
- Fold-change Scn2a1 [1]: 1.10
- Fold-change Scn3a [1]: 1.11
- Fold-change Scn5a [1]: 1.23
- Fold-change Scn7a [1]: 1.07
- Fold-change Scn8a [1]: −1.07
- Fold-change Scn9a [1]: 1.01
- Fold-change Slc6a4 [1]: −1.11
- Fold-change Trak1 [1]: −1.05
- Fold-change Trpc6 [1]: −1.08
- Fold-change Trpm2 [1]: −1.10
- Fold-change Trpm3 [1]: 1.12
- Fold-change Trpm4 [1]: −1.14
- Fold-change Trpm7 [1]: 1.10
- Fold-change Trps1 [1]: 1.14
- Fold-change Trpv4 [1]: 2.12
- Fold-change Trpv6 [1]: −1.07
- Fold-change Unc80 [1]: 1.07
- Fold-change Arfgef2 [2]: 1.01
- Fold-change Astn2 [2]: 1.0
- Fold-change Bmp2 [2]: −1.02
- Fold-change Bmp3 [2]: −2.70
- Fold-change Bmp4 [2]: 1.05
- Fold-change Bmp5 [2]: −1.01
- Fold-change Cacna1a [2]: −1.16
- Fold-change Cacna1g [2]: −1.43
- Fold-change Cacna1i [2]: −1.39
- Fold-change Cacna1h [2]: −1.49
- Fold-change Cacna1d [2]: −1.04
- Fold-change Cacnb1 [2]: −1.13
- Fold-change Clcn1 [2]: −1.05
- Fold-change Clcn2 [2]: 1.01
- Fold-change Clic5 [2]: −1.05
- Fold-change Eef2 [2]: 1.01
- Fold-change Gabra5 [2]: −1.23
- Fold-change Gabra6 [2]: 2.08
- Fold-change Gabre [2]: 1.10
- Fold-change Gabrg1 [2]: 1.14
- Fold-change Jakmip1 [2]: −1.10
- Fold-change Kcna5 [2]: −1.41
- Fold-change Kcnc3 [2]: −1.04
- Fold-change Kcnd2 [2]: −1.00
- Fold-change Kcnh2 [2]: −1.04
- Fold-change Kcnh7 [2]: −1.19
- Fold-change Kcnj6 [2]: −1.38
- Fold-change Kcnk1 [2]: 1.05
- Fold-change Kcns2 [2]: −1.25
- Fold-change Kcnv1 [2]: 1.09
- Fold-change Kif1b [2]: 1.01
- Fold-change Maoa [2]: 1.14
- Fold-change Mapk3 [2]: −1.00
- Fold-change Mpz [2]: −1.05
- Fold-change Nacc2 [2]: −1.00
- Fold-change Nav3 [2]: −1.19
- Fold-change Ncald [2]: 1.03
- Fold-change Ndnf [2]: 1.06
- Fold-change Net1 [2]: 1.12
- Fold-change Neurod4 [2]: 1.57
- Fold-change Nf2 [2]: 1.04
- Fold-change Nfasc [2]: −1.02
- Fold-change Ngef [2]: −1.34
- Fold-change Nkain2 [2]: −1.14
- Fold-change Nova1 [2]: 1.04
- Fold-change Nras [2]: −1.03
- Fold-change Nrep [2]: 1.01
- Fold-change Nrg2 [2]: 1.10
- Fold-change Nrg3 [2]: −1.00
- Fold-change Nrp2 [2]: 1.07
- Fold-change Ntrk1 [2]: 1.80
- Fold-change Nts [2]: −1.74
- Fold-change Plcl1 [2]: 1.13
- Fold-change Scn2a1 [2]: −1.04
- Fold-change Scn3a [2]: −1.01
- Fold-change Scn5a [2]: 1.01
- Fold-change Scn7a [2]: −1.07
- Fold-change Scn8a [2]: 1.05
- Fold-change Scn9a [2]: 1.29
- Fold-change Slc6a4 [2]: 4.38
- Fold-change Trak1 [2]: −1.01
- Fold-change Trpc6 [2]: 1.08
- Fold-change Trpm2 [2]: −1.02
- Fold-change Trpm3 [2]: 1.19
- Fold-change Trpm4 [2]: 1.05
- Fold-change Trpm7 [2]: 1.06
- Fold-change Trps1 [2]: 1.03
- Fold-change Trpv4 [2]: 1.21
- Fold-change Trpv6 [2]: −1.19
- Fold-change Unc80 [2]: 1.10
- Fold change S100a9 (TG RNAseq, FRICT-ION + LMK235 VS FRICT-ION): −2.74
- C1q14 RNA level vs naïve [3]: not significantly different from naïve mice
- Crhbp RNA level vs naïve [3]: not significantly different form naïve controls
- P2rx4 RNA level vs naïve [3]: not different from naïves
- Slfn4 RNA level vs naïve [3]: not different from naïve controls
- P2rx7 foldchanges (TG RNAseq, LMK235-treated and untreated FRICT-ION mice): minimal and insignificant foldchanges
- Bmp2 downregulated, fold [4]: 1.02 fold
- Bmp3 downregulated, fold [4]: 2.70 fold
- Bmp4 expression change [4]: not affected
- Bmp5 downregulated, fold [4]: 1.01 fold
- Cacna1a downregulated, fold [4]: 1.16 fold
- Cacna1 downregulated, fold [4]: 1.39 fold
- Cacna1g downregulated, fold [4]: 1.43 fold
- Cacna1h downregulated, fold [4]: 1.49 fold
- Cacna1d downregulated, fold [4]: 1.04 fold
- CacnbI downregulated, fold [4]: 1.13 fold
- Clcn2 upregulated, fold [4]: 1.01 fold
- Kcna5 downregulated, fold [4]: 1.41 fold
- Kcnd2 downregulated, fold [4]: 1.00 fold
- Kcne2 reduced, fold (insignificant) [4]: 1.56 fold
- Kcnh7 downregulated, fold [4]: 1.19 fold
- Kcnj6 downregulated, fold [4]: 1.38 fold
- Kcnk1 upregulated, fold [4]: 1.05 fold
- Kcns2 downregulated, fold [4]: 1.25 fold
- Maoa upregulated, fold [4]: 1.14 fold
- Mpz downregulated, fold [4]: 1.05 fold
